Experimental data reported in ChEMBL document CHEMBL4376820, “Homodimeric Tobramycin Adjuvant Repurposes Novobiocin as an Effective Antibacterial Agent against Gram-Negative Bacteria” (J Med Chem, 2019).
In brackets after ≈: the same amount, converted by molar mass. Activity calls are given as the source filed them. The calls are words filed in the database; no cut-off is given here.

Columns and labels:
Pseudomonas aeruginosa [1] = assay: Induction of outer membrane permeabilization in Pseudomonas aeruginosa PAO1 assessed as increase in accumulation of NPN by measuring fluorescence intensity at 14 ug/ml measured immediately by NPN dye uptake assay; assay type: organism-based
Acinetobacter baumannii [2] = assay: Antibacterial activity against wild type Acinetobacter baumannii ATCC 17978 assessed as resistant development at sub-MIC measured after 7 days of passaging by microbroth dilution method relative to control; assay type: functional
Acinetobacter baumannii [3] = assay: Antibacterial activity against novobiocin-resistant Acinetobacter baumannii ATCC 17978 mutant generated from seven serial passages by checkerboard assay; assay type: functional
Acinetobacter baumannii [4] = assay: Antibacterial activity against colistin-resistant Acinetobacter baumannii ATCC 17978 mutant generated from seven serial passages by checkerboard assay; assay type: functional
Acinetobacter baumannii [5] = assay: Antibacterial activity against novobiocin and test compound-resistant Acinetobacter baumannii ATCC 17978 mutant generated from seven serial passages in presence of novobiocin by checkerboard assay; assay type: functional
Acinetobacter baumannii [6] = assay: Antibacterial activity against wild type Acinetobacter baumannii ATCC 17978 by checkerboard assay; assay type: functional
Klebsiella pneumoniae = assay: Bacteriostatic activity against Klebsiella pneumoniae 116381 at 50.4 uM in LB media after 24 hrs by time-kill assay; assay type: functional
Staphylococcus aureus = assay: Antibacterial activity against methicillin-resistant Staphylococcus aureus ATCC 33592; assay type: functional
[7] = test system: Staphylococcus epidermidis; assay: Antibacterial activity against methicillin-resistant Staphylococcus epidermidis 61589; assay type: functional
Enterococcus faecium = assay: Antibacterial activity against Enterococcus faecium ATCC 27270; assay type: functional
Pseudomonas aeruginosa [8] = assay: Bacteriostatic activity against Pseudomonas aeruginosa PAO1 at 50.4 uM in LB media after 24 hrs by time-kill assay; assay type: functional, organism-based
Acinetobacter baumannii [9] = assay: Bacteriostatic activity against Acinetobacter baumannii ATCC 17978 at 50.4 uM in LB media after 24 hrs by time-kill assay; assay type: functional, organism-based
Escherichia coli = assay: Bactericidal activity against Escherichia coli ATCC […] at 50.4 uM in LB media after 24 hrs by time-kill assay; assay type: functional, organism-based
Acinetobacter baumannii [10] = assay: Antibacterial activity against wild type Acinetobacter baumannii ATCC 17978 assessed as resistant development at sub-MIC measured after 3 days of passaging by microbroth dilution method relative to control; assay type: functional
Acinetobacter baumannii [11] = assay: Antibacterial activity against wild type Acinetobacter baumannii ATCC 17978 assessed as resistant development at sub-MIC measured after 5 days of passaging by microbroth dilution method relative to control; assay type: functional
[12] = Toxicity in Galleria mellonella larvae MDR Acinetobacter baumannii isolate assessed as mortality at 100 mg/kg measured after 24 hrs relative to control; assay type: ADME, organism-based; settings: in vivo, read-out: Activity

Question: For NC[C@H]1O[C@H](O[C@H]2[C@H](O)[C@@H](O[C@H]3O[C@H](CO)[C@@H](O)[C@H](N)[C@H]3O)[C@H](N)C[C@@H]2N)[C@H](N)C[C@@H]1O [TOBRAMYCIN], which Activity (Pseudomonas aeruginosa [1]) is on record?
Answer: Its Activity is “inactive”.

Question: What about the “fold change (FC)” value (Acinetobacter baumannii [2]) of the same compound?
Answer: The value was 512.

Question: And the MIC (Acinetobacter baumannii [3])?
Answer: Its MIC is 1 µg/mL.

Question: And the MIC (Acinetobacter baumannii [4])?
Answer: The MIC was 0.25 µg/mL.

Question: And the MIC (Acinetobacter baumannii [5])?
Answer: Its MIC is 1 µg/mL.

Question: And the MIC (Acinetobacter baumannii [6])?
Answer: The MIC was 1 µg/mL.

Question: With CO[C@@H]1[C@@H](OC(N)=O)[C@@H](O)[C@H](Oc2ccc3c(O)c(NC(=O)c4ccc(O)c(CC=C(C)C)c4)c(=O)oc3c2C)OC1(C)C [NOVOBIOCIN] as the compound, how does the Activity (Klebsiella pneumoniae) read?
Answer: The Activity was -1.87 CFU/ml.

Question: What about the MIC (Staphylococcus aureus) of the same compound?
Answer: The MIC was 0.125 µg/mL (≈ 0.204 µM).

Question: And the MIC [7]?
Answer: The MIC was 0.0625 µg/mL (≈ 0.102 µM).

Question: And the MIC (Enterococcus faecium)?
Answer: The MIC was 2 µg/mL (≈ 3.26 µM).

Question: And the Activity (Pseudomonas aeruginosa [8])?
Answer: Its Activity is “Active”.

Question: What about the Activity (Acinetobacter baumannii [9]) of the same compound?
Answer: The Activity was “Active”.

Question: And the Activity (Escherichia coli)?
Answer: Its Activity is “Active”.

Question: And the “fold change (FC)” value (Acinetobacter baumannii [10])?
Answer: Its value is 64.

Question: What about the “fold change (FC)” value (Acinetobacter baumannii [11]) of the same compound?
Answer: Its value is 256.

Question: What about the MIC (Acinetobacter baumannii [3]) of the same compound?
Answer: Its MIC is 2050 µg/mL.

Question: And the MIC (Acinetobacter baumannii [4])?
Answer: The MIC was under 0.031 µg/mL.

Question: And the MIC (Acinetobacter baumannii [5])?
Answer: Its MIC is 128 µg/mL.

Question: And the mortality at 24 h [12]?
Answer: The mortality at 24 h was 100%.

Question: And the MIC (Acinetobacter baumannii [6])?
Answer: The MIC was 16 µg/mL.
